What was measured:
SOLNI (black nightshade) = assay: Pre-emergence herbicidal activity, warm season; format: in vivo, Solanum nigrum; settings: GR80 = lowest tested rate (300, 100, 30, 10 g/ha) with 80% or greater inhibition; approx. 14 days after treating; 30/21° C.
How it was run: (§1)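 Seeds sown in sterilised fertilised topsoil received surface-applied compound in 50:50 acetone/water, typically at 300, 100, 30 and 10 g/ha, then greenhouse-grown at 30/21° C (warm-season species) or 18/13° C (cool-season species). Percent inhibition versus untreated plants was scored at about 14 days, giving GR80; an asterisk marks activity short of 80% at the top rate.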

[1] = system: CHEAL (common lambsquarters); assay: Pre-emergence herbicidal activity, warm season; format: in vivo, Chenopodium album; settings: GR80 = lowest tested rate (300, 100, 30, 10 g/ha) with 80% or greater inhibition; approx. 14 days after treating; 30/21° C.
How it was run: as §1

CONAR (field bindweed) = assay: Pre-emergence herbicidal activity, warm season; format: in vivo, Convolvulus arvensis; settings: GR80 = lowest tested rate (300, 100, 30, 10 g/ha) with 80% or greater inhibition; approx. 14 days after treating; 30/21° C.
Protocol: (§2) Tables 5 to 8 summarize results of tests conducted as described below to determine the pre-emergence herbicidal activity, in the form of a GR80 value, of illustrative compounds of this invention. […] Compounds of the invention were typically applied at rates of 300, 100, 30, and 10 g/ha. Where herbicidal activity was evident but 80% inhibition was not achieved at the highest rate tested, an asterisk (*) is shown in the following tables.
(§3) The pre-emergence tests were conducted by the following procedure. Topsoil was sieved to pass through a 1.27 cm screen. Fertilizer was added to the topsoil and the mixture was then sterilized by heating. The topsoil mixture was placed in a pot and compacted to a depth of 1.0 to 1.25 cm from the top of the pot. Seeds of each of several monocotyledonous and dicotyledonous annual plant species were placed on top of the soil. Additional soil was subsequently placed over the seeds to level-fill the pot. A known amount of each test compound dissolved or suspended in an appropriate organic solvent was diluted with a 50:50 mix of acetone and water and applied to the surface of the soil. After treatment the plants were placed in a greenhouse where they received 0.64 cm of overhead irrigation. All subsequent watering consisted of a light overhead mist and/or subirrigation as needed for germination and growth. Tables 5 and 6 below relate to warm season plant species which were placed after pre-emergence treatment in a greenhouse with a 30/21° C. day/night temperature regime. Tables 7 and 8 below relates to cool season plant species placed after pre-emergence treatment in a greenhouse or growth chamber with an 18/13° C. day/night temperature regime.
(§4) Approximately 14 days after planting and treating, the plants were observed and herbicidal efficacy recorded as percent inhibition by comparison with untreated plants.
(§5) The plant species usually regarded as weeds which were utilized in the tests are identified in the tables below according to the following legend, in which “d” indicates a dicotyledonous species and “m” a monocotyledonous species. All monocotyledonous species included in the tests herein are grasses.

POROL (common purslane) = assay: Pre-emergence herbicidal activity, warm season; format: in vivo, Portulaca oleracea; settings: GR80 = lowest tested rate (300, 100, 30, 10 g/ha) with 80% or greater inhibition; approx. 14 days after treating; 30/21° C.
How it was run: as §1

ECHCG (barnyardgrass) = assay: Pre-emergence herbicidal activity, warm season; format: in vivo, Echinochloa crus-galli; settings: GR80 = lowest tested rate (300, 100, 30, 10 g/ha) with 80% or greater inhibition; approx. 14 days after treating; 30/21° C.
How it was run: (§6)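 GR80 values derive from percent inhibition relative to untreated plants, read roughly 14 days after sowing and pre-emergence soil-surface treatment (compound in 50:50 acetone/water; rates typically 10, 30, 100, 300 g/ha). Warm-season weeds grew at 30/21° C day/night, cool-season ones at 18/13° C; an asterisk marks activity without reaching 80% at the highest rate.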

[2] = system: PANMI (wild proso millet); assay: Pre-emergence herbicidal activity, warm season; format: in vivo, Panicum miliaceum; settings: GR80 = lowest tested rate (300, 100, 30, 10 g/ha) with 80% or greater inhibition; approx. 14 days after treating; 30/21° C.
How it was run: as §1

[3] = system: SORHA (johnsongrass (seedling)); assay: Pre-emergence herbicidal activity, warm season; format: in vivo, Sorghum halepense; settings: GR80 = lowest tested rate (300, 100, 30, 10 g/ha) with 80% or greater inhibition; approx. 14 days after treating; 30/21° C.
How it was run: as §6

SETFA (giant foxtail) = assay: Pre-emergence herbicidal activity, warm season; format: in vivo, Setaria faberi; settings: GR80 = lowest tested rate (300, 100, 30, 10 g/ha) with 80% or greater inhibition; approx. 14 days after treating; 30/21° C.
How it was run: as §6

PANDI (fall panicum) = assay: Pre-emergence herbicidal activity, warm season; format: in vivo, Panicum dichotomiflorum; settings: GR80 = lowest tested rate (300, 100, 30, 10 g/ha) with 80% or greater inhibition; approx. 14 days after treating; 30/21° C.
Protocol: as §2, §3, §4, §5

[4] = system: BRAPP (broadleaf signalgrass); assay: Pre-emergence herbicidal activity, warm season; format: in vivo, Brachiaria platyphylla; settings: GR80 = lowest tested rate (300, 100, 30, 10 g/ha) with 80% or greater inhibition; approx. 14 days after treating; 30/21° C.
How it was run: as §6

[5] = system: GALAP (catchweed bedstraw); assay: Pre-emergence herbicidal activity, cool season; format: in vivo, Galium aparine; settings: lowest tested rate with 80% or greater inhibition; rates 300, 100, 30, 10 g/ha; about 14 days
How it was run: as §1

POLCO (wild buckwheat) = assay: Pre-emergence herbicidal activity, cool season; format: in vivo, Polygonum convolvulus; settings: lowest tested rate with 80% or greater inhibition; rates 300, 100, 30, 10 g/ha; about 14 days
How it was run: as §1

SINAR (wild mustard) = assay: Pre-emergence herbicidal activity, cool season; format: in vivo, Sinapis arvensis; settings: lowest tested rate with 80% or greater inhibition; rates 300, 100, 30, 10 g/ha; about 14 days
How it was run: as §1

[6] = system: VERPE (creeping speedwell); assay: Pre-emergence herbicidal activity, cool season; format: in vivo, Veronica persicaria; settings: lowest tested rate with 80% or greater inhibition; rates 300, 100, 30, 10 g/ha; about 14 days
How it was run: as §1

SASKR (russian thistle) = assay: Pre-emergence herbicidal activity, cool season; format: in vivo, Salsola kali; settings: lowest tested rate with 80% or greater inhibition; rates 300, 100, 30, 10 g/ha; about 14 days
How it was run: as §1

STEME (common chickweed) = assay: Pre-emergence herbicidal activity, cool season; format: in vivo, Stellaria media; settings: lowest tested rate with 80% or greater inhibition; rates 300, 100, 30, 10 g/ha; about 14 days
How it was run: as §1

[7] = system: LAMPU (purple deadnettle); assay: Pre-emergence herbicidal activity, cool season; format: in vivo, Lamium purpureum; settings: lowest tested rate with 80% or greater inhibition; rates 300, 100, 30, 10 g/ha; about 14 days
How it was run: as §1

ALOMY (blackgrass) = assay: Pre-emergence herbicidal activity, cool season; format: in vivo, Alopecurus myosuroides; settings: GR80 = lowest tested rate (300, 100, 30, 10 g/ha) with 80% or greater inhibition; approx. 14 days after treating; 18/13° C.
How it was run: as §1

SETVI (green foxtail) = assay: Pre-emergence herbicidal activity, cool season; format: in vivo, Setaria viridis; settings: GR80 = lowest tested rate (300, 100, 30, 10 g/ha) with 80% or greater inhibition; approx. 14 days after treating; 18/13° C.
How it was run: as §1

LOLMG (annual ryegrass) = assay: Pre-emergence herbicidal activity, cool season; format: in vivo, Lolium multiflorum; settings: GR80 = lowest tested rate (300, 100, 30, 10 g/ha) with 80% or greater inhibition; approx. 14 days after treating; 18/13° C.
How it was run: as §1

[8] = system: AGSST (creeping bentgrass); assay: Pre-emergence herbicidal activity, cool season; format: in vivo, Agrostis stolonifera; settings: GR80 = lowest tested rate (300, 100, 30, 10 g/ha) with 80% or greater inhibition; approx. 14 days after treating; 18/13° C.
How it was run: as §1

SORVU (shattercane) = assay: Pre-emergence herbicidal activity, warm season; format: in vivo, Sorghum vulgare; settings: GR80 = lowest tested rate (300, 100, 30, 10 g/ha) with 80% or greater inhibition; approx. 14 days after treating; 30/21° C.
How it was run: as §6

AVEFA (wild oat) = assay: Pre-emergence herbicidal activity, cool season; format: in vivo, Avena fatua; settings: GR80 = lowest tested rate (300, 100, 30, 10 g/ha) with 80% or greater inhibition; approx. 14 days after treating; 18/13° C.
Protocol: as §2, §3, §4, §5

AMARE (redroot pigweed) = assay: Pre-emergence herbicidal activity, warm season; format: in vivo, Amaranthus retroflexus; settings: GR80 = lowest tested rate (300, 100, 30, 10 g/ha) with 80% or greater inhibition; approx. 14 days after treating; 30/21° C.
How it was run: as §1

[9] = system: CIRAR (canada thistle (seedling)); assay: Pre-emergence herbicidal activity, warm season; format: in vivo, Cirsium arvense; settings: GR80 = lowest tested rate (300, 100, 30, 10 g/ha) with 80% or greater inhibition; approx. 14 days after treating; 30/21° C.
How it was run: as §1

DIGSA (large crabgrass) = assay: Pre-emergence herbicidal activity, warm season; format: in vivo, Digitaria sanguinalis; settings: GR80 = lowest tested rate (300, 100, 30, 10 g/ha) with 80% or greater inhibition; approx. 14 days after treating; 30/21° C.
How it was run: as §1

ABUTH (velvetleaf) = assay: Pre-emergence herbicidal activity, warm season; format: in vivo, Abutilon theophrasti; settings: GR80 = lowest tested rate (300, 100, 30, 10 g/ha) with 80% or greater inhibition; approx. 14 days after treating; 30/21° C.
Protocol: as §2, §3, §4, §5

DATST (jimsonweed) = assay: Pre-emergence herbicidal activity, warm season; format: in vivo, Datura stramonium; settings: GR80 = lowest tested rate (300, 100, 30, 10 g/ha) with 80% or greater inhibition; approx. 14 days after treating; 30/21° C.
Protocol: as §2, §3, §4, §5

Structure (SMILES)	Pre-emergence activity (GR80) SOLNI (SOLNI (black nightshade))	Pre-emergence activity (GR80) CHEAL [1]	Pre-emergence activity (GR80) CONAR (CONAR (field bindweed))	Pre-emergence activity (GR80) POROL (POROL (common purslane))	Pre-emergence activity (GR80) ECHCG (ECHCG (barnyardgrass))	Pre-emergence activity (GR80) PANMI [2]	Pre-emergence activity (GR80) SORHA [3]	Pre-emergence activity (GR80) SETFA (SETFA (giant foxtail))	Pre-emergence activity (GR80) BRAPP [4]	Pre-emergence activity GR80, GALAP [5]	Pre-emergence activity GR80, POLCO (POLCO (wild buckwheat))	Pre-emergence activity GR80, SINAR (SINAR (wild mustard))	Pre-emergence activity GR80, VERPE [6]	Pre-emergence activity GR80, SASKR (SASKR (russian thistle))	Pre-emergence activity GR80, STEME (STEME (common chickweed))	Pre-emergence activity GR80, LAMPU [7]	Pre-emergence activity (GR80) ALOMY (ALOMY (blackgrass))	Pre-emergence activity (GR80) SETVI (SETVI (green foxtail))	Pre-emergence activity (GR80) AGSST [8]	Pre-emergence activity (GR80) SORVU (SORVU (shattercane))	other results
CCSC(F)(F)S(=O)(=O)c1ncn(C(=O)N2CCCC2)n1 [Example 47]	300 g/ha	300 g/ha	300 g/ha	300 g/ha	300 g/ha	100 g/ha	300 g/ha	300 g/ha	300 g/ha	300 g/ha	[empty]	300 g/ha	10 g/ha	100 g/ha	30 g/ha	30 g/ha	300 g/ha	300 g/ha	30 g/ha		Pre-emergence activity (GR80) PANDI (PANDI (fall panicum)): 300 g/ha; Pre-emergence activity (GR80) LOLMG (LOLMG (annual ryegrass)): 300 g/ha
CCSC(F)(F)S(=O)(=O)c1ncn(C(=O)N(C)C)n1 [Example 49]		300 g/ha	300 g/ha	300 g/ha	300 g/ha	300 g/ha	300 g/ha	300 g/ha	300 g/ha	300 g/ha	[empty]	300 g/ha	300 g/ha	[empty]	300 g/ha	300 g/ha		300 g/ha	100 g/ha	300 g/ha	Pre-emergence activity (GR80) PANDI (PANDI (fall panicum)): 300 g/ha; Pre-emergence activity (GR80) AVEFA (AVEFA (wild oat)): 300 g/ha
O=C(N1CCCC1)n1cnc(S(=O)(=O)C(F)(F)Cl)n1 [Example 83]	300 g/ha	100 g/ha	300 g/ha	100 g/ha		100 g/ha	300 g/ha	300 g/ha	100 g/ha	100 g/ha	300 g/ha	[empty]	[empty]	300 g/ha	300 g/ha	100 g/ha	300 g/ha	300 g/ha	100 g/ha	300 g/ha	Pre-emergence activity (GR80) AMARE (AMARE (redroot pigweed)): 300 g/ha; Pre-emergence activity (GR80) CIRAR [9]: 100 g/ha; Pre-emergence activity (GR80) DIGSA (DIGSA (large crabgrass)): 100 g/ha
CCN(CC)C(=S)n1cnc(S(=O)(=O)C(F)(F)Cl)n1 [Example 94]	100 g/ha	30 g/ha	100 g/ha	30 g/ha		100 g/ha	300 g/ha	100 g/ha	10 g/ha	[empty]	10 g/ha	[empty]	[empty]	[empty]	300 g/ha	300 g/ha	10 g/ha		300 g/ha	100 g/ha	Pre-emergence activity (GR80) ABUTH (ABUTH (velvetleaf)): 100 g/ha; Pre-emergence activity (GR80) AMARE (AMARE (redroot pigweed)): 10 g/ha; Pre-emergence activity (GR80) DATST (DATST (jimsonweed)): 300 g/ha; Pre-emergence activity (GR80) CIRAR [9]: 30 g/ha; Pre-emergence activity (GR80) DIGSA (DIGSA (large crabgrass)): 300 g/ha
